Data set [1] is described as follows: pH titration of fluorophores (pKa).
Protocol: The dye of interest is first dissolved in a series of buffers that have each been calibrated using a pH meter. Acetate buffers are typically used in the range of pH 46, and phosphate buffers in the pH range 68. Absorption measurements are made using solutions that are approximately 10 1M in concentration, and fluorescence measurements are made using solutions that are approximately 1 μM in concentration. The absorption or emission data is then plotted versus pH to determine pKa values.
A short description of data set [2]: Photodecomposition on illumination in fluorometer. It is filed as physicochemical. The note with it: % of decreased fluorescence intensity after 33 minutes of illumination in fluorometer at wavelength of maximum excitation. The method, then: *% of decreased fluorescence intensity after 33 minutes of illumination in
fluorometer at wavelength of maximum excitation

A short description of data set [3]: Spectral properties of selected fluorinated fluoresceins and rhodols. It is filed as physicochemical. To be noted: for Abs.: absorption maximum; for Em.: emission maximum; for ε × 10^-3: extinction coefficient, value is ε × 10^-3; for Quantum Yield: fluorescence quantum yield.
Where [4] appears, read: given in the synthesis examples.

From US6229055A, “Synthesis of fluorinated xanthene derivatives” (Molecular Probes, Inc., priority 2000, dated 2001) come the findings set out here.

For orientation: pKa means the negative logarithm of the acid dissociation constant. Low readings indicate a group that gives up its proton readily, high ones a group that holds its proton tightly.

As to “5-(and-6)-carboxy-2',4',5',7'-tetrafluorofluorescein [Compound 40]”, in data set [1] (Table 1), the pKa worked out at 3.7. This compound also had a photodecomposition in data set [2] of 6.0%. For the same compound, in data set [3], the Abs. was determined as 510 nm, the Em. was 533 nm, the “ε × 10^-3” value worked out at 81.3 cm^-1 M^-1 and the “Quantum Yield” value is on record as 0.59.

In the case of “5-(and-6)-carboxy-2',7'-dichlorofluorescein [reference compound]”, in data set [3], the Abs. came to 504 nm, the Em. was 530 nm, the “ε × 10^-3” value is on record as 80.3 cm^-1 M^-1 and the “Quantum Yield” value was determined as 0.75.

As to “5-(and-6)-carboxy-2',7'-difluorofluorescein”, the pKa in data set [1] (Table 1) is reported as 4.8. This compound registered a photodecomposition in data set [2] of 9.0%. Also, in data set [3], the Abs. came to 492 nm, the Em. was found to be 516 nm, the “ε × 10^-3” value was found to be 85.9 cm^-1 M^-1 and the “Quantum Yield” value stood at 0.92.

Compound “5-(and-6)-carboxy-2'-fluororhodol [Compound 55]” had a pKa in data set [1] (Table 1) of 3.8. This compound had a photodecomposition in data set [2] of 4.0%. In data set [3], the Abs. was found to be 495 nm and the Em. was 518 nm.

“5-(and-6)-carboxy-4',5'-difluorofluorescein [Compound 41]” came in with a pKa in data set [1] (Table 1) of 5.2. In addition, the photodecomposition in data set [2] turned out to be 11%. For the same compound, in data set [3], the Abs. was determined as 510 nm, the Em. was determined as 534 nm, the “ε × 10^-3” value is 84.2 cm^-1 M^-1 and the “Quantum Yield” value is on record as 0.43.

Compound 5-(and-6)-carboxy-7'-fluororhodol gave a pKa in data set [1] (Table 1) of 5.2. The photodecomposition in data set [2] turned out to be 4.0%. Also, in data set [3], the Abs. is 494 nm and the Em. is 519 nm.

With “5-(and-6)-carboxy-N,N-dimethyl-2'-fluororhodol”, in data set [1] (Table 1), the pKa is on record as 4.2. Moreover, the photodecomposition in data set [2] was determined as 5.0%. In data set [3], this compound returned an Abs. of 519 nm and an Em. of 553 nm.

Turning to “5-(and-6)-carboxy-N,N-dimethyl-7'-fluororhodol”, in data set [1] (Table 1), the pKa is on record as 5.3. The photodecomposition in data set [2] stood at 5.0%. Besides, in data set [3], the Abs. is listed as 520 nm and the Em. was determined as 546 nm.

For “5-(and-6)-carboxy-N,N-dimethylrhodol [reference compound]”, in data set [3], the Abs. was found to be 518 nm, the Em. is recorded as 544 nm and the “Quantum Yield” value is recorded as 0.26.

“5-(and-6)-carboxyrhodol [reference compound]” had a pKa in data set [1] (Table 1) of 5.6. This compound also had a photodecomposition in data set [2] of 4.0%. In addition, in data set [3], the Abs. is 494 nm, the Em. amounted to 521 nm, the “ε × 10^-3” value was found to be 69.6 cm^-1 M^-1 and the “Quantum Yield” value is on record as 0.89.

With `O=C1OC2(c3cc(Cl)c(O)cc3Oc3cc(O)c(Cl)cc32)c2ccccc21` [2',7'-dichlorofluorescein, reference compound], the pKa in data set [1] (Table 1) is on record as 5.1; in data set [1] (approximate, from fluorescence emission versus pH (FIG. 3), in water) it was ~ 5.1.

For `O=C(O)c1ccc(-c2c3cc(F)c(=O)cc-3oc3cc(O)c(F)cc23)c(S(=O)(=O)O)c1` [9-(4-carboxy-2-sulfo)-6-hydroxy-2,7-difluoro-3H-xanthene-3-one], in data set [1] (Table 1), the pKa is reported as 4.3. For the same compound, the photodecomposition in data set [2] came to 7.3%. Also, in data set [3], the Abs. is 497 nm, the Em. is on record as 517 nm, the “ε × 10^-3” value is on record as 83.8 cm^-1 M^-1 and the “Quantum Yield” value came to 0.92.

For `O=C1OC2(c3cc(F)c(O)cc3Oc3cc(O)c(F)cc32)c2c(F)c(F)c(F)c(F)c21` [Compound 26, 2',4,5,6,7,7'-hexafluorofluorescein], the pKa in data set [1] (Table 1) is listed as 4.8. In data set [2], this compound came in with a photodecomposition of 4.0%. For the same compound, in data set [3], the Abs. turned out to be 508 nm, the Em. was 527 nm, the “ε × 10^-3” value was 81.2 cm^-1 M^-1 and the “Quantum Yield” value is 0.96.

In turn, `O=C1OC2(c3cc(Cl)c(O)cc3Oc3cc(O)c(Cl)cc32)c2c(F)c(F)c(F)c(F)c21` [Compound 37, 2',7'-dichloro4,5,6,7-tetrafluorofluorescein] gave a pKa in data set [1] (Table 1) of 4.2. In addition, the photodecomposition in data set [2] is 3.0%. Besides, in data set [3], the Abs. came out at 520 nm, the Em. was 538 nm, the “ε × 10^-3” value amounted to 88.5 cm^-1 M^-1 and the “Quantum Yield” value was 0.80.

The compound `O=c1c(F)c2oc3c(F)c(O)c(F)c(F)c3c(-c3c(F)c(F)c(F)c(F)c3F)c-2c(F)c1F` [Compound 50, 1,2,4,5,7,8-hexafluoro-6-hydroxy-9-pentafluorophenylxanthen-3-one] showed a pKa in data set [1] (Table 1) of 2.8. Moreover, in data set [2], the photodecomposition stood at 4.0%. Moreover, the “Quantum Yield” value in data set [3] turned out to be 0.11.

For the compound `CN(C)c1ccc2c(c1)Oc1cc(O)c(F)cc1C21OC(=O)c2ccccc21` (centres unmarked) [Compound 51, 2'-fluoro-N,N-dimethylrhodol], in data set [1] (setting [4]), the pKa is listed as 4.2.

`Nc1cc2c(cc1F)C1(OC(=O)c3ccccc31)c1ccc(O)cc1O2` (centres unmarked) [Compound 52, 7'-fluororhodol] came in with a pKa in data set [1] (setting [4]) of 5.2.

Consider `CN(C)c1cc2c(cc1F)C1(OC(=O)c3ccccc31)c1ccc(O)cc1O2` (centres unmarked) [Compound 53, N,N-dimethyl-7'-fluororhodol], for which, in data set [1] (setting [4]), the pKa worked out at 5.3.

Take `Nc1ccc2c(c1)Oc1cc(O)c(F)cc1C21OC(=O)c2ccccc21` (centres unmarked) [Compound 54, 2'-fluororhodol]: in data set [1] (setting [4]), the pKa came out at 3.8.

With `O=C(O)CSc1c(F)c(F)c2c(c1F)C1(OC2=O)c2ccc(O)cc2Oc2cc(O)ccc21` [Compound 58, 6-carboxymethylthio-4,5,7-trifluorofluorescein], the pKa in data set [1] (Table 1) amounted to 4.5. This compound also came in with a photodecomposition in data set [2] of 5.0%. Besides, in data set [3], the Abs. amounted to 507 nm, the Em. is reported as 526 nm, the “ε × 10^-3” value was 63.5 cm^-1 M^-1 and the “Quantum Yield” value amounted to 0.88.

With `O=C(O)CSc1c(F)c(F)c2c(c1F)C1(OC2=O)c2cc(F)c(O)cc2Oc2cc(O)c(F)cc21` [Compound 59, 6-carboxymethylthio-2',4,5,7,7'-pentafluorofluorescein], in data set [3], the Abs. came to 507 nm, the Em. was 526 nm, the “ε × 10^-3” value is 87.5 cm^-1 M^-1 and the “Quantum Yield” value stood at 0.86.

With `Nc1c(F)c(F)c2c(c1F)C1(OC2=O)c2ccc(O)cc2Oc2cc(O)ccc21` [Compound 68, 6-amino-4,5,7-trifluorofluorescein], in data set [3], the Abs. is recorded as 503 nm, the Em. amounted to 522 nm, the “ε × 10^-3” value stood at 77.5 cm^-1 M^-1 and the “Quantum Yield” value is on record as 0.053.

Turning to `[N-]=[N+]=Nc1c(F)c(F)c2c(c1F)C1(OC2=O)c2ccc(O)cc2Oc2cc(O)ccc21` [Compound 78, 6-azido-4,5,7-trifluorofluorescein], in data set [3], the Abs. stood at 507 nm, the Em. turned out to be 527 nm, the “ε × 10^-3” value is 79.9 cm^-1 M^-1 and the “Quantum Yield” value turned out to be 0.92.
